# Measured values reported in patent US20030198661A1, “Antioxidant compositions and methods for companion animals” (MARS INCORPORATED, priority 2000, published 2003).
# Assays:
# [1] = in vivo
# [2] = Plasma vitamin C in dogs after dietary vitamin C; type: in vivo
# Description: Samples are prepared under subdued lighting at all times.
# A preferred minimal dose of vitamin C to achieve an increase in plasma in cats is 20 mg/400 kcal. A preferred minimal dose of vitamin C tested to achieve an increase in plasma in dogs was 27 mg/400 kcal.
# rabies = type: in vivo; settings: healthy adult cats; once daily oral supplement at Table 13 levels
# [3] = cats; oral α-tocopherol acetate supplements
# [4] = dog, in vivo
# [5] = Plasma α-tocopherol response to supplementation in healthy dogs (Example 10); type: in vivo
# Description: Vitamin E is the collective name for 8 naturally occurring molecules, 4 tocopherols and 4 tocotrienols. The biological activity of the various forms roughly correlates with their antioxidant activities with the order of relative peroxyl scavenging reactivities of α>β>γ>δ-tocopherol. […] The minimum requirement for vitamin E in adult dogs has been established as 2.5 IU α-tocopherol/400 kcal diet (Nutrient Requirements of Dogs (1985) National Research Council (U.S.) National Academy Press Washington D.C. ISBN:0-309-03496-5). Prepared petfoods typically contain up to 10 times this amount but across the normal ranges of vitamin E in petfoods, plasma concentrations tend to be constant. In a study to evaluate the impact of supplementary vitamin E on the plasma response, 6 adult dogs, maintained on a nutritionally complete (see diet reference section) canned dog food (vitamin E content 8.2 mg/400 kcal (8.21U/400 kcal), were offered a supplement equivalent to 100 IU vitamin E/day for 6 weeks. A control group of 6 dogs was maintained under the same conditions but received no dietary supplement. Plasma α-tocopherol was monitored during, and for 4 weeks following, the supplementation period.
smiles,measurement,setting,value
"O=C1O[C@H]([C@@H](O)CO)C(O)=C1O [Vitamin C, L-ascorbic acid]",plasma vitamin C levels versus baseline within 7 days,[1],significantly increased
same,minimal dose of vitamin C tested to achieve an increase in plasma,[2],27 mg/400 kcal
same,anti-rabies antibody response to vaccination versus unsupplemented controls,rabies,greater
"CC(=O)Oc1c(C)c(C)c2c(c1C)CCC(C)(CCC[C@H](C)CCC[C@H](C)CCCC(C)C)O2 (stereo partly drawn) [Vitamin E, alpha-tocopherol acetate]",plasma vitamin E levels following oral supplementation,[3],significantly increased
same,anti-rabies antibody response to vaccination versus unsupplemented controls,rabies,greater
CC1=C(/C=C/C(C)=C/C=C/C(C)=C/C=C/C=C(C)/C=C/C=C(C)/C=C/C2=C(C)CCCC2(C)C)C(C)(C)CCC1 [beta-carotene],anti-rabies antibody response to vaccination versus unsupplemented controls,rabies,greater
CC(C)=CCC/C(C)=C/C=C/C(C)=C/C=C/C(C)=C/C=C/C=C(C)/C=C/C=C(C)/C=C/C=C(\C)CCC=C(C)C [lycopene],anti-rabies antibody response to vaccination versus unsupplemented controls,rabies,particularly marked
"NCCS(=O)(=O)O [taurine, aminoethylsulfonic acid]",anti-rabies antibody response to vaccination versus unsupplemented controls,rabies,greater
Cc1c(C)c2c(c(C)c1O)CC[C@@](C)(CCC[C@H](C)CCC[C@H](C)CCCC(C)C)O2 [α-tocopherol],"individual plasma α-tocopherol levels, median",[4],21.1 mg/L
same,Plasma α-tocopherol,"[5]; Test group (100 IU vitamin E/day for 6 weeks), Baseline",15.9
same,Plasma α-tocopherol,"[5]; Test group (100 IU vitamin E/day), Day 28",32.6
same,Plasma α-tocopherol,"[5]; Test group (100 IU vitamin E/day), Day 42",35.4
same,Plasma α-tocopherol,"[5]; Test group, Day 70 (day 28 post-supplementation)",28.2 ± 6.87
